#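 Interpolation was linear, between the two tested concentrations surrounding the appropriate level; five concentrations were tested over 48 hours in 96-well plates. GI50 = concentration required for 50% inhibition of growth.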 Active and inactive are the calls of the source. Rule as the data show it: active = GI50 up to about 1.1 µM and inactive = higher.
# Legend:
# Assay in all cases: NCI tumour cell line growth inhibition, 48 h
# CAKI-1 = system: CAKI-1
# HCT-116 = system: HCT-116
# OVCAR-3 = system: OVCAR-3
# SNB-75 = system: SNB-75
# SK-MEL-2 = system: SK-MEL-2
# A498 = system: A498
# OVCAR-8 = system: OVCAR-8
# SK-MEL-5 = system: SK-MEL-5
# MCF7 = system: MCF7
# A549 = system: A549
# ACHN = system: ACHN
# HT-29 = system: HT-29
# SK-OV-3 = system: SK-OV-3
# NCI-H226 = system: NCI-H226
# SK-MEL-28 = system: SK-MEL-28
# HOP-92 = system: HOP-92
# KM12 = system: KM12
# LOX IMVI = system: LOX IMVI
# T47D = system: T47D
# SN12C = system: SN12C
SMILES,GI50 (CAKI-1),GI50 (HCT-116),GI50 (OVCAR-3),GI50 (SNB-75),GI50 (SK-MEL-2),GI50 (A498),GI50 (OVCAR-8),GI50 (SK-MEL-5),GI50 (MCF7),GI50 (A549),GI50 (ACHN),GI50 (HT-29),GI50 (SK-OV-3),GI50 (NCI-H226),GI50 (SK-MEL-28),GI50 (HOP-92),GI50 (KM12),GI50 (LOX IMVI),GI50 (T47D),GI50 (SN12C)
COc1ccc(/N=C\c2ccc(N(CCC#N)CCC#N)cc2)cc1,69.2 µM (inactive),63.8 µM (inactive),78.3 µM (inactive),> 100 µM (inactive),> 67.1 µM (inactive),> 100 µM (inactive),74.6 µM (inactive),40.4 µM (inactive),> 100 µM (inactive),47.9 µM (inactive),26.7 µM (inactive),> 67.6 µM (inactive),> 100 µM (inactive),> 100 µM (inactive),> 81.1 µM (inactive),99.3 µM (inactive),17.1 µM (inactive),> 28.9 µM (inactive),> 100 µM (inactive),> 89.3 µM (inactive)
O=C1CCC(C(=O)O)C2=C1CCCC2 (stereo not given),> 100 µM (inactive),> 100 µM (inactive),> 100 µM (inactive),> 100 µM (inactive),> 100 µM (inactive),> 100 µM (inactive),> 100 µM (inactive),> 56.1 µM (inactive),51.6 µM (inactive),> 34 µM (inactive),> 100 µM (inactive),> 100 µM (inactive),> 43.4 µM (inactive),> 14.4 µM (inactive),> 100 µM (inactive),> 100 µM (inactive),> 35.6 µM (inactive),> 100 µM (inactive),> 100 µM (inactive),> 100 µM (inactive)
NCCCN1c2ccccc2Sc2ccc(Cl)cc21,> 8.24 µM (inactive),2.53 µM (inactive),5.3 µM (inactive),> 6.98 µM (inactive),> 6.21 µM (inactive),> 10 µM (inactive),5.7 µM (inactive),> 4.02 µM (inactive),1.76 µM (inactive),4.59 µM (inactive),6.18 µM (inactive),2.55 µM (inactive),> 6.56 µM (inactive),9.95 µM (inactive),> 5.85 µM (inactive),> 10 µM (inactive),2.51 µM (inactive),3.29 µM (inactive),> 5.36 µM (inactive),6 µM (inactive)
COc1cc(/C=C/c2sc3ccccc3[n+]2C)ccc1N(C)C,35.6 µM (inactive),3.3 µM (inactive),2.23 µM (inactive),> 10 µM (inactive),2.32 µM (inactive),44 µM (inactive),2.93 µM (inactive),4.14 µM (inactive),4.45 µM (inactive),5.98 µM (inactive),11.1 µM (inactive),17.9 µM (inactive),23.6 µM (inactive),22.4 µM (inactive),8.2 µM (inactive),1.85 µM (inactive),3.62 µM (inactive),15.8 µM (inactive),3.21 µM (inactive),12.9 µM (inactive)
O=C(COc1ccc(OCC(=O)N2C(=O)CC/C2=N\c2ccc(Cl)cc2)cc1)N1C(=O)CS/C1=N\c1ccc(Cl)cc1,> 100 µM (inactive),93.8 µM (inactive),61.2 µM (inactive),18.5 µM (inactive),> 100 µM (inactive),> 100 µM (inactive),47.5 µM (inactive),76 µM (inactive),35.3 µM (inactive),26.4 µM (inactive),49.8 µM (inactive),48.4 µM (inactive),> 100 µM (inactive),> 100 µM (inactive),> 100 µM (inactive),> 100 µM (inactive),75.2 µM (inactive),25.2 µM (inactive),14.2 µM (inactive),> 100 µM (inactive)
CCOC(=O)c1cn2c(n1)sc1c(Cl)c(Cl)ccc12,9.86 µM (inactive),5.69 µM (inactive),11.1 µM (inactive),15 µM (inactive),27.4 µM (inactive),20.6 µM (inactive),15.9 µM (inactive),6.7 µM (inactive),11.1 µM (inactive),15.1 µM (inactive),15.3 µM (inactive),12 µM (inactive),> 51.8 µM (inactive),14.8 µM (inactive),20.8 µM (inactive),24.5 µM (inactive),5.36 µM (inactive),13.2 µM (inactive),0.91 µM (active),3.45 µM (inactive)
COC1=CC(=O)c2c(O)c3c(c(O)c2C1=O)C[C@](C)(O)C[C@@H]3O,17.4 µM (inactive),2.61 µM (inactive),0.861 µM (active),9.42 µM (inactive),3.35 µM (inactive),7.66 µM (inactive),4.07 µM (inactive),1.33 µM (inactive),4.89 µM (inactive),2.93 µM (inactive),5.15 µM (inactive),2.72 µM (inactive),14.1 µM (inactive),23.9 µM (inactive),7.05 µM (inactive),9.48 µM (inactive),4.13 µM (inactive),2.54 µM (inactive),6.98 µM (inactive),3.63 µM (inactive)
O=C(/C=C/c1cccc(Br)c1)N1CCN(CCOC(c2ccccc2)c2ccccc2)CC1,> 100 µM (inactive),29.3 µM (inactive),50.5 µM (inactive),26.2 µM (inactive),43.6 µM (inactive),44.9 µM (inactive),55.5 µM (inactive),16 µM (inactive),35 µM (inactive),43.2 µM (inactive),57.3 µM (inactive),21.6 µM (inactive),> 100 µM (inactive),45 µM (inactive),> 100 µM (inactive),23 µM (inactive),32 µM (inactive),24.2 µM (inactive),23.6 µM (inactive),31.7 µM (inactive)
COc1cccc2c(=O)oc(-c3ccccc3C)nc12,35.2 µM (inactive),29.5 µM (inactive),29 µM (inactive),> 100 µM (inactive),26.6 µM (inactive),> 100 µM (inactive),48.8 µM (inactive),23 µM (inactive),33.7 µM (inactive),38.2 µM (inactive),43 µM (inactive),39 µM (inactive),> 100 µM (inactive),19.5 µM (inactive),29.3 µM (inactive),> 100 µM (inactive),38 µM (inactive),18.3 µM (inactive),> 100 µM (inactive),26.5 µM (inactive)
CC(C)(C)N1C=[N+](C(C)(C)C)CC1,> 100 µM (inactive),> 100 µM (inactive),> 100 µM (inactive),75 µM (inactive),> 100 µM (inactive),38.7 µM (inactive),> 100 µM (inactive),> 100 µM (inactive),> 100 µM (inactive),> 100 µM (inactive),> 100 µM (inactive),> 100 µM (inactive),> 100 µM (inactive),> 100 µM (inactive),> 100 µM (inactive),> 100 µM (inactive),> 100 µM (inactive),> 100 µM (inactive),> 100 µM (inactive),> 100 µM (inactive)
COc1cc2c3c(c1)CCCN3CCC2,> 10 µM (inactive),> 10 µM (inactive),> 10 µM (inactive),> 10 µM (inactive),> 10 µM (inactive),> 10 µM (inactive),> 10 µM (inactive),> 10 µM (inactive),> 10 µM (inactive),> 10 µM (inactive),> 10 µM (inactive),> 10 µM (inactive),> 10 µM (inactive),> 10 µM (inactive),> 10 µM (inactive),> 10 µM (inactive),> 10 µM (inactive),> 10 µM (inactive),> 10 µM (inactive),> 10 µM (inactive)
C=CN1CCN(c2ccccc2)P1(=O)Oc1ccccc1 (stereo not given),> 100 µM (inactive),48 µM (inactive),> 100 µM (inactive),16.4 µM (inactive),54.6 µM (inactive),> 100 µM (inactive),89.3 µM (inactive),87.7 µM (inactive),> 100 µM (inactive),> 100 µM (inactive),48.8 µM (inactive),92.9 µM (inactive),> 100 µM (inactive),65.2 µM (inactive),> 100 µM (inactive),50.9 µM (inactive),> 100 µM (inactive),> 100 µM (inactive),63.7 µM (inactive),> 100 µM (inactive)
COc1cc(S(=O)(=O)N/N=C/c2cc(Br)c(O)c(OC)c2)c(OC)cc1NC(C)=O,91 µM (inactive),30.6 µM (inactive),92 µM (inactive),> 100 µM (inactive),> 100 µM (inactive),> 100 µM (inactive),> 100 µM (inactive),87.7 µM (inactive),57.4 µM (inactive),> 100 µM (inactive),78.3 µM (inactive),34 µM (inactive),> 100 µM (inactive),> 100 µM (inactive),> 100 µM (inactive),34.1 µM (inactive),> 100 µM (inactive),38.6 µM (inactive),41.3 µM (inactive),73.8 µM (inactive)
CN(C)c1ccc(/C=c2/c3ccccc3n3c2cc(C24CC5CC(CC(C5)C2)C4)[n+]3C)cc1,0.234 µM (active),0.0828 µM (active),0.476 µM (active),0.394 µM (active),0.313 µM (active),0.314 µM (active),0.129 µM (active),0.158 µM (active),0.0615 µM (active),0.205 µM (active),0.23 µM (active),0.299 µM (active),0.377 µM (active),0.396 µM (active),0.643 µM (active),0.366 µM (active),0.156 µM (active),0.326 µM (active),0.124 µM (active),0.324 µM (active)
